From US20250074911A1, “MACROCYCLIC BTK INHIBITORS” (Crossfire Oncology Holding B.V., priority 2021, published 2025)
Like-named read-outs stand apart in the source and are kept apart here.

Legend:
[1] = tested on: wt-TMD8 diffuse large B-cell lymphoma cells; assay: Cell proliferation assay wt-TMD8 (ATPlite, 120 hours); format: cell-based; settings: wt-TMD8 cells, 120 hours, ATPlite, read-out: IC50 wt-TMD8
Description: Cell proliferation assay wt-TMD8 diffuse large B-cell lymphoma cells were purchased from Tokyo Medical and Dental University and cultured in RPMI-1640 cell culture medium (cat. no. 61870036, Life Technologies), supplemented with 10% (v/v) heat-inactivated fetal bovine calf serum and 1% penicillin/[…]. 1600 cells per well (in 45 μl) were seeded in a white 384-well culture plate (cat. no. 781080, Greiner Bio-One) and allowed to rest for at least 5 hours at 37° C., 95% humidity, and 5% CO2. 5 μl compound solution was added to the cells and incubation was continued for 120 hours (5 days), followed by addition of 24 μl ATPlite 1Step™ (PerkinElmer, Groningen, The Netherlands) solution was added to each well. Luminescence was recorded on an Envision multimode reader. The cell signal at the start of incubation was recorded separately in order to distinguish between cell population growth and cell death. In addition, maximum growth was determined by incubation of a duplicate without compound in the presence of 0.3% DMSO. Percentage growth was used as the main y-axis signal.

[2] = biological target: full-length BTK C481S enzyme (Homo sapiens (Human), UniProt Q06187, C481S); assay: Biochemical kinase assay BTK C481S (IMAP)
Description: Biochemical kinase assay BTK […] To determine the inhibitory activity of compounds on BTK C481S enzyme activity, the IMAP® assay (Molecular Devices) was used. […] After pre-incubation of 1 hour in the dark at room temperature, fluorescein-labeled MBP-derived substrate peptide (Molecular Devices, cat. no. RP 7123) was added, followed by ATP to start the reaction. Final enzyme concentration was 1.2 nM final substrate concentration 50 nM, and final ATP concentration was 7 μM. The reaction was allowed to proceed for 2 hours at room temperature in the dark. The reaction was stopped by quenching with IMAP progressive binding solution according to the protocol of the manufacturer (Molecular Devices). Fluorescein polarization was measured on an Envision multimode reader (Perkin Elmer, Waltham, MA, U.S.A.). IC50 were calculated using XLfitTM5 software (ID Business Solutions, Ltd., Surrey, U.K.). Results of the BTK […] binding affinity are shown in Table 1 below. • IC50 BTK […]: […]

[3] = tested on: wt-REC-1 mantle cell lymphoma cells; assay: Cell proliferation assay wt-REC-1 (ATPlite, 72 hours); format: cell-based; settings: read-out: IC50 wt-REC-1
Description: Results of the BTK […] binding affinity are shown in Table 1 below. • IC50 BTK […]: […] wt-REC-1 mantle cell lymphoma cells were purchased from American Type Culture Collection via Synthego Corporation (cat. no. CRL-3004, ATCC). […] Luminescence was recorded on an Envision multimode reader. The cell signal at the start of incubation was recorded separately in order to distinguish between cell population growth and cell death. In addition, maximum growth was determined by incubation of a duplicate without compound in the presence of 0.3% DMSO. Percentage growth was used as the main y-axis signal. IC50s were fitted by non-linear regression using IDBS XLfitTM5 using a 4-parameter logistic curve, yielding a maximum signal, minimum signal, hill-parameter and IC50. Results of the wt-REC-1 proliferation are shown in Table 1 below. • IC50 wt-REC-1: […]

REC-1 T474I cell lines = assay: Cell proliferation assay REC-1 BTK T474I knock-in cells (ATPlite, 72 hours); format: cell-based; settings: 72 hours, read-out: IC50 REC-1 T474I
Description: Cell proliferation assay Generation of BTK […] knock-in cell lines wt-REC-1 cell lines expressing mutant BTK were created at Synthego Corporation. Cell lines expressing BTK […] was generated via CRISPR/Cas9. Monoclonal REC-1 […] cell lines were obtained by single cell cloning. The mutation status of all cell lines was confirmed via sequencing. […] Luminescence was recorded on an Envision multimode reader. The cell signal at the start of incubation was recorded separately in order to distinguish between cell population growth and cell death. In addition, maximum growth was determined by incubation of a duplicate without compound in the presence of 0.3% DMSO. Percentage growth was used as the main y-axis signal.

[4] = biological target: full-length wt-BTK enzyme (Homo sapiens (Human), UniProt Q06187); assay: Biochemical kinase assay wt-BTK (IMAP)
Description: Biochemical kinase assay wt-BTK To determine the inhibitory activity of compounds on wt-BTK enzyme activity, the IMAP® assay (Molecular Devices) was used. […] After pre-incubation of 1 hour in the dark at room temperature, fluorescein-labeled MBP-derived substrate peptide (Molecular Devices, cat. no. RP 7123) was added, followed by ATP to start the reaction. Final enzyme concentration was 1.2 nM, final substrate concentration 50 nM, and final ATP concentration was 4 μM. The reaction was allowed to proceed for 2 hours at room temperature in the dark. The reaction was stopped by quenching with IMAP progressive binding solution according to the protocol of the manufacturer (Molecular Devices). Fluorescein polarization was measured on an Envision multimode reader (Perkin Elmer, Waltham, MA, U.S.A.). […] Results of the wt-BTK binding affinity are shown in Table 1 below. • IC50 wt-BTK: […]

full-length BTK C481S enzyme, sequence (Q06187 whole entry C481S): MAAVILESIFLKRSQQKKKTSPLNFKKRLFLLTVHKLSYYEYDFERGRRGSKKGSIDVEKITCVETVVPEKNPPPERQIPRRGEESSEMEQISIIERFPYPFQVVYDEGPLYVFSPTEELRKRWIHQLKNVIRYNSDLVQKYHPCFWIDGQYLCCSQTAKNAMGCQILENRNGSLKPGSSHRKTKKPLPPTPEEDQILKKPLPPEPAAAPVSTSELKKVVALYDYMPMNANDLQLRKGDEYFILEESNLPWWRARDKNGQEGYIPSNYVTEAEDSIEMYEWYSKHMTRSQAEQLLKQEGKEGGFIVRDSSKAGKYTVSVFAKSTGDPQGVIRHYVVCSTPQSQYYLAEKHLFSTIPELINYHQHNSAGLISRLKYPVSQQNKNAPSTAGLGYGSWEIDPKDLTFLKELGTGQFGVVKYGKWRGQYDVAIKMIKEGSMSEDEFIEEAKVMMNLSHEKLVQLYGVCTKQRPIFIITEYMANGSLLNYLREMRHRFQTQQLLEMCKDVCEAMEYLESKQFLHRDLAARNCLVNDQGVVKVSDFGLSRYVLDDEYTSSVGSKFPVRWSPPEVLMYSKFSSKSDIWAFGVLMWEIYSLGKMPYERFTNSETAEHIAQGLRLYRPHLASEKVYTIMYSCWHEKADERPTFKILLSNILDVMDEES
full-length wt-BTK enzyme, sequence (Q06187 whole entry): as the sequence (Q06187 whole entry C481S) above, with S481C counted along it

Structure (SMILES)	IC50 ([1]; B-cell) [nM]	IC50 [2] [nM]	IC50 ([3]; 72 hours) [nM]	IC50 (REC-1 T474I cell lines; Homo sapiens, Rec1) [nM]	IC50 [4] [nM]	IC50 [1] [nM]	IC50 (REC-1 T474I cell lines) [nM]	IC50 ([3]; 72 h) [nM]
CC1NC/C=C/c2cnc(N)c3c(-c4ccc(C(=O)Nc5cc(C(F)(F)F)ccn5)cc4)nn(c23)CC[C@@H](C)NC1=O (single isomer, unassigned) [Example 143]	< 100	< 5	100 to 1000	500 to 10000	< 5			
CC1NC/C=C/c2cnc(N)c3c(-c4ccc(C(=O)Nc5cc(C(F)(F)F)ccn5)cc4)nn(c23)CC[C@@H](C)NC1=O (single isomer, unassigned) [Example 144]		5 to 50	1000 to 10000		5 to 50	< 100	500 to 10000	
Nc1ncc2c3c1c(-c1ccc(C(=O)Nc4cc(C(F)(F)F)ccn4)cc1)nn3[C@@H]1CCC[C@H](C1)NC(=O)CCCNC/C=C/2 [Example 15]	< 100	< 5			< 5			100 to 1000
Nc1ncc2c3c1c(-c1ccc(C(=O)Nc4cc(C(F)(F)F)ccn4)cc1)nn3[C@@H]1CCC[C@H](C1)NC(=O)CCCCC/C=C/C2 [Example 101a]		5 to 50		500 to 10000	5 to 50			100 to 1000
Nc1ncc2c3c1c(-c1ccc(C(=O)Nc4ccccn4)cc1)nn3[C@@H]1CCC[C@H](C1)NC(=O)CCCCC/C=C/C2 [Example 102a]		< 5		< 100	< 5			< 100
Nc1ncc2c3c1c(-c1ccc(C(=O)Nc4cc(C(F)(F)F)ccn4)cc1)nn3[C@@H]1CCC[C@H](C1)NC(=O)CCCCCC/C=C/C2 [Example 103a]		< 5		100 to 500	< 5			100 to 1000
Nc1ncc2c3c1c(-c1ccc(C(=O)Nc4ccccn4)cc1)nn3[C@@H]1CCC[C@H](C1)NC(=O)COC/C=C/C2 [Example 104a]		50 to 500		500 to 10000	50 to 500			1000 to 10000
Nc1ncc2c3c1c(-c1ccc(C(=O)Nc4cc(C(F)(F)F)ccn4)cc1)nn3[C@@H]1CCC[C@H](C1)NC(=O)CCNC/C=C/C2 [Example 106]		5 to 50		500 to 10000	5 to 50			1000 to 10000
Nc1ncc2c3c1c(-c1ccc(C(=O)Nc4cc(C(F)(F)F)ccn4)cc1)nn3[C@@H]1CCC[C@H](C1)NC(=O)CCCNC/C=C/C2 [Example 107]		5 to 50		500 to 10000	5 to 50			1000 to 10000
Nc1ncc2c3c1c(-c1ccc(C(=O)Nc4cc(C(F)(F)F)ccn4)cc1)nn3[C@@H]1CCC[C@H](C1)NC(=O)CCCNC/C=C\C2 [Example 108]		< 5		500 to 10000	< 5			100 to 1000
C[C@@H]1CCn2nc(-c3ccc(C(=O)Nc4cc(C(F)(F)F)ccn4)cc3)c3c(N)ncc(c32)C/C=C\CCCC(=O)N1 [Example 109a]		5 to 50		500 to 10000	5 to 50			100 to 1000
C[C@@H]1CCn2nc(-c3ccc(C(=O)Nc4cc(C(F)(F)F)ccn4)cc3)c3c(N)ncc(c32)C/C=C/CCCC(=O)N1 [Example 109b]		50 to 500		500 to 10000	50 to 500			1000 to 10000
C[C@@H]1CCn2nc(-c3ccc(C(=O)Nc4cc(C(F)(F)F)ccn4)cc3)c3c(N)ncc(c32)CC=CCCCCC(=O)N1 [Example 110]		5 to 50		500 to 10000	5 to 50			100 to 1000
C[C@@H]1CCn2nc(-c3ccc(C(=O)Nc4cc(C(F)(F)F)ccn4)cc3)c3c(N)ncc(c32)CC=CCCCCCC(=O)N1 [Example 111]		5 to 50		500 to 10000	5 to 50			1000 to 10000
Nc1ncc2c3c1c(-c1ccc(C(=O)Nc4cc(C(F)(F)F)ccn4)cc1)nn3[C@@H]1CCC[C@H](C1)NC(=O)CCNCCCC2 [Example 112]		< 5		100 to 500	< 5			100 to 1000
C[C@@H]1CCn2nc(-c3ccc(C(=O)Nc4cc(C(F)(F)F)ccn4)cc3)c3c(N)ncc(c32)CCCO[C@H](C)C(=O)N1 [Example 113]		5 to 50		500 to 10000	5 to 50			1000 to 10000
Nc1ncc2c3c1c(-c1ccc(C(=O)Nc4cc(C(F)(F)F)ccn4)cc1)nn3[C@@H]1CCC[C@H](C1)C(=O)NCCCCC2 [Example 116]		50 to 500		500 to 10000	50 to 500			1000 to 10000
Nc1ncc2c3c1c(-c1ccc(C(=O)Nc4cc(C(F)(F)F)ccn4)cc1)nn3[C@@H]1CCC[C@H](C1)C(=O)NCCCCCC2 [Example 117]		< 5		500 to 10000	5 to 50			100 to 1000
Nc1ncc2c3c1c(-c1ccc(C(=O)Nc4cc(C(F)(F)F)ccn4)cc1)nn3[C@@H]1CCC[C@H](C1)C(=O)NCCCCCCCCC2 [Example 120]		5 to 50		500 to 10000	5 to 50			100 to 1000
C[C@@H]1CCn2nc(-c3ccc(C(=O)Nc4cc(C(F)(F)F)ccn4)cc3)c3c(N)ncc(c32)CCCCCCC(=O)N1 [Example 121]		< 5		500 to 10000	5 to 50			100 to 1000
C[C@@H]1CCn2nc(-c3ccc(C(=O)Nc4cc(C(F)(F)F)ccn4)cc3)c3c(N)ncc(c32)CCCOCC(=O)N1 [Example 122]		5 to 50		500 to 10000	5 to 50			100 to 1000
Nc1ncc2c3c1c(-c1ccc(C(=O)Nc4ccccn4)cc1)nn3[C@@H]1CCC[C@H](C1)NC(=O)CCCCC2 [Example 124]		50 to 500		500 to 10000	50 to 500			100 to 1000
Nc1ncc2c3c1c(-c1ccc(C(=O)Nc4ccccn4)cc1)nn3[C@@H]1CCC[C@H](C1)NC(=O)CCCCCC2 [Example 125]		5 to 50		500 to 10000	5 to 50			100 to 1000
Nc1ncc2c3c1c(-c1ccc(C(=O)Nc4ccccn4)cc1)nn3[C@@H]1CCC[C@H](C1)NC(=O)CCCCCCC2 [Example 126]		< 5		100 to 500	< 5			< 100
Nc1ncc2c3c1c(-c1ccc(C(=O)Nc4cc(C(F)(F)F)ccn4)cc1)nn3[C@@H]1CCC[C@H](C1)NC(=O)CNCCCC2 [Example 127]		< 5		500 to 10000	< 5			100 to 1000
Nc1ncc2n3c(nc(-c4ccc(C(=O)Nc5cc(C(F)(F)F)ccn5)cc4)c13)[C@@H]1CCC[C@H](C1)NC(=O)CCC/C=C/C2 [Example 133a]		5 to 50		500 to 10000	5 to 50			100 to 1000
